Values quoted from earlier work as cited in PMC8198792, “Prediction of Anticancer Peptides with High Efficacy and Low Toxicity by Hybrid Model Based on 3D Structure of Peptides” (International Journal of Molecular Sciences, 2021).
Where two headings read alike, the source gives them in different places.

What was measured:
erythrocytes = settings: cited from earlier work
Text: Supplement ijms-22-05630-s001.zip/Hemloytic Peptides(seguence).xlsx, sheet "HD1" | column: Activity || Supplement ijms-22-05630-s001.zip/Hemloytic Peptides(seguence).xlsx, sheet "HD2" | column: Activity || Supplement ijms-22-05630-s001.zip/Hemloytic Peptides(seguence).xlsx, sheet "HD3" | column: Activity

cancer cell lines = tested on: cancer cell lines; parameters: method as in 6 sources, ref CancerPPD [45] and SATPdb ||| ref CancerPPD/SATPdb ||| ref CancerPPD, SATPdb, Swissprot (PDB) ||| ref CancerPPD/SATPdb/Swissprot(PDB) ||| ref CancerPPD / SATPdb ||| ...; settings: cited from earlier work
Text: Supplement ijms-22-05630-s001.zip/ACPs(seguence).xlsx, sheet "D1" | column: Activity || Supplement ijms-22-05630-s001.zip/ACPs(seguence).xlsx, sheet "D2" | column: Activity || Supplement ijms-22-05630-s001.zip/ACPs(seguence).xlsx, sheet "D3" | column: Activity || (+ 2 further places)

[1] = Hemolytic peptides dataset HD2, label 1 = hemolytic, 0 = non-hemolytic, ref Hemolytik/SATPdb
[2] = hemolytic peptides dataset HD3, 1 = hemolytic (positive set), 0 = non-hemolytic (negative set), labels taken from databases, ref Hemolytik/SATPdb
[3] = natural hemolytic peptide dataset HD1, label collected from databases, ref Hemolytik [49], SATPdb [34]
[4] = ACPs dataset D1, 1 = ACP (positive), 0 = non-ACP (negative), label taken from databases, ref CancerPPD [45] and SATPdb
[5] = ACPs dataset D4 (sheet "D4"), label 1 = ACP, experimentally validated ACPs, ref CancerPPD [45] and SATPdb
[6] = ACPs dataset D5 (sheet "D5"), label 1 = ACP (positive set), sequences with CancerPPD/SATPdb ID, ref CancerPPD, SATPdb
[7] = ACPs dataset sheet D2, 1 = ACP (CancerPPD/SATPdb ID), 0 = non-ACP (Swissprot/PDB ID), ref CancerPPD, SATPdb, Swissprot (PDB)
[8] = ACPs dataset D4 (sheet "D4"), label 1 = ACP (CancerPPD ID), 0 = non-ACP (non-anticancer AMP, SATPdb ID), ref CancerPPD [45] and SATPdb
[9] = ACPs dataset D2 (supplement ACPs(seguence).xlsx, sheet D2), dataset label 1/0 (ACP / non-ACP), entries identified by Swissprot(PDB ID), ref CancerPPD/SATPdb/Swissprot(PDB)
[10] = ACPs dataset D5, sheet "D5", label 1 = ACP, 0 = non-ACP, ref CancerPPD [45] and SATPdb
[11] = ACPs dataset D3 (supplement sheet "D3"), 1 = ACP, 0 = non-ACP, ref CancerPPD [45] and SATPdb
[12] = ACPs dataset D5 (sheet "D5"), label 1 = ACP (positive set), 0 = non-ACP (negative set), ref CancerPPD [45] and SATPdb
[13] = ACPs dataset D1, label 1 = ACP, 0 = non-ACP (non-anticancer AMPs from SATPdb), ref CancerPPD/SATPdb

SFPFFPPGICKRLKRC [satpdb23345]
Activity (erythrocytes): 0 | Activity (dataset HD1, hemolytic 1 / non-hemolytic 0) (erythrocytes): 0

QADFQKVVAGVANALAHRYH [satpdb25830]
Activity (erythrocytes): 0 | Activity (dataset HD1, hemolytic 1 / non-hemolytic 0) (erythrocytes): 0

KKKKKKKKKKGIGKFLHSAKKFGKAFVGEIMNS [satpdb13667]
Activity (erythrocytes): 0 | Activity (dataset HD1, hemolytic 1 / non-hemolytic 0) (erythrocytes): 0

GRRRRSVQWCA [satpdb24172]
Activity (erythrocytes): 0 | Activity (dataset HD1, hemolytic 1 / non-hemolytic 0) (erythrocytes): 0

GWRKWIKKATHVGKHIGKAALDAYI [satpdb10530]
Activity (erythrocytes): 1

VIPFVASVAAEMMHHVYCAASKRC [satpdb16460]
Activity (erythrocytes): 1 | Activity (dataset HD1, hemolytic 1 / non-hemolytic 0) (erythrocytes): 1

KWKLFKKIPLAKKF [satpdb27289]
Activity (erythrocytes): 0

KKKKKKAAWAAWAAWAA [satpdb17717]
Activity (erythrocytes): 0

ILPLKLPWLPLRR [satpdb11800]
Activity (erythrocytes): 0

GWKSVFRKAKKVGKTVGGLALDHYL [satpdb12845]
Activity (erythrocytes): 1

SFHVFPPWMCKSLKKC [satpdb22093]
Activity (erythrocytes): 0 | Activity (dataset HD1, hemolytic 1 / non-hemolytic 0) (erythrocytes): 0

WKKIPKFLHLAKKF [satpdb14752]
Activity (erythrocytes): 0

RRGWALRLVLAY [satpdb14852]
Activity (erythrocytes): 1 | Activity (dataset HD1, hemolytic 1 / non-hemolytic 0) (erythrocytes): 1

KKAFAAAAAFAAWAAFAKKKK [satpdb16931]
Activity (erythrocytes): 0

FLGPIIKIATGILPTAICKILKKC [satpdb24144]
Activity (erythrocytes): 0 | Activity (dataset HD1, hemolytic 1 / non-hemolytic 0) (erythrocytes): 0

AAGMGFFGAR [satpdb25191]
Activity (erythrocytes; [1]): 0 | Activity (erythrocytes; [2]): 0

SFFKKAAHVGKHVGKAALTHYL [satpdb17678]
Activity (erythrocytes): 0

LKDVEEAQQKIINIIRRL [satpdb22186]
Activity (erythrocytes): 0

KKKKKKALFALWLAFLA [compound 1155]
Activity (erythrocytes): 1

KIAEKFSGTRRG [satpdb24068]
Activity (erythrocytes): 0 | Activity (dataset HD1, hemolytic 1 / non-hemolytic 0) (erythrocytes): 0

CKLLKTFLSKWIC [compound 3456]
Activity (erythrocytes): 1

fPOVO [satpdb21927]
Activity (erythrocytes; [1]): 0 | Activity (erythrocytes; [2]): 0

PKLKTFLSKWIG [satpdb28564]
Activity (erythrocytes): 0 | Activity (dataset HD1, hemolytic 1 / non-hemolytic 0) (erythrocytes): 0

KKKKKKLLFAAWAAFAA [compound 1152]
Activity (erythrocytes): 1

RAGLQFPVGRLLRRLLR [satpdb15223]
Activity (erythrocytes): 0 | Activity (dataset HD1, hemolytic 1 / non-hemolytic 0) (erythrocytes): 0

EWGRRCCGWGPGRRYCRRWC [satpdb13121]
Activity (erythrocytes; [2]): 0 | Activity (dataset HD1, hemolytic 1 / non-hemolytic 0) (erythrocytes; [3]): 0

RWRSFFKKAAHRGKHVGKRARTHYL [satpdb15888]
Activity (erythrocytes): 0

GCRFCCNCCPNMSGCGVCCRF [satpdb21740]
Activity (erythrocytes; [2]): 0 | Activity (dataset HD1, hemolytic 1 / non-hemolytic 0) (erythrocytes; [3]): 0

GFWKKVGSAAWGGVKAAAKGAAVGGLNALAKHIQ [satpdb28387]
Activity (erythrocytes): 0 | Activity (dataset HD1, hemolytic 1 / non-hemolytic 0) (erythrocytes): 0

KLLKLLLKLLLKLLK [compound 3689]
Activity (erythrocytes): 1

KKFLHSAKKWLKAFVKLKKNW [satpdb15438]
Activity (erythrocytes): 1 | Activity (dataset HD1, hemolytic 1 / non-hemolytic 0) (erythrocytes): 1

KRLFKKLLFSLRKY [satpdb21867]
Activity (erythrocytes): 0 | Activity (dataset HD1, hemolytic 1 / non-hemolytic 0) (erythrocytes): 0

KNWKGIAGMAKKLLGKNWELMKK [satpdb11666]
Activity (erythrocytes; [2]): 1 | Activity (dataset HD1, hemolytic 1 / non-hemolytic 0) (erythrocytes; [3]): 1

ILGKLLSTAWGLLSNL [satpdb11718]
Activity (erythrocytes): 1

GFKLKGKAKISCLPNGQWSNFPPKCIRECAMVSS [satpdb25464]
Activity (erythrocytes): 0 | Activity (dataset HD1, hemolytic 1 / non-hemolytic 0) (erythrocytes): 0

WLKKW [satpdb27168]
Activity (erythrocytes; [1]): 0 | Activity (erythrocytes; [2]): 0

WNPFKELERAGQRVRDAIISAAP [satpdb17819]
Activity (erythrocytes): 0 | Activity (dataset HD1, hemolytic 1 / non-hemolytic 0) (erythrocytes): 0

LRRLWLRANRL [satpdb19164]
Activity (erythrocytes): 0 | Activity (dataset HD1, hemolytic 1 / non-hemolytic 0) (erythrocytes): 0

FDWDSVLKGVEGFVRGYF [satpdb25715]
Activity (erythrocytes): 0 | Activity (dataset HD1, hemolytic 1 / non-hemolytic 0) (erythrocytes): 0

TGRAKRRMQYNRR [satpdb25092]
Activity (erythrocytes): 0 | Activity (dataset HD1, hemolytic 1 / non-hemolytic 0) (erythrocytes): 0

KWKKLPKKLLKLL [satpdb21914]
Activity (erythrocytes): 0

AKKVSKRLEKLFSKIQNDK [satpdb19605]
Activity (erythrocytes): 0 | Activity (dataset HD1, hemolytic 1 / non-hemolytic 0) (erythrocytes): 0

ILGKLLSTAAkLLSNL [satpdb12605]
Activity (erythrocytes; [1]): 1 | Activity (erythrocytes; [2]): 1

GGLRSLGRKILRAWKKYGPIIVPIIRIG [satpdb22390]
Activity (erythrocytes): 0 | Activity (dataset HD1, hemolytic 1 / non-hemolytic 0) (erythrocytes): 0

GWANTLKNVAGGLCKITGAA [satpdb14607]
Activity (erythrocytes): 1 | Activity (dataset HD1, hemolytic 1 / non-hemolytic 0) (erythrocytes): 1

LKLFKKILKYL [satpdb12465]
Activity (erythrocytes): 1

KKKKKKALFAAWAAFLA [compound 1151]
Activity (erythrocytes): 1

LLGMIPLAISAISALSKL [compound 4453]
Activity (cancer cell lines; [4]): 1 | Activity (cancer cell lines; [5]): 1 | Activity (cancer cell lines; [6]): 1 | Activity (cancer cell lines; [7]): 1

GLLGLLGSVVSHVVPAIVGHF [compound 4416]
Activity (cancer cell lines; [4]): 1 | Activity (cancer cell lines; [5]): 1 | Activity (cancer cell lines; [6]): 1 | Activity (cancer cell lines; [7]): 1

VAKCTEESGGKYFVFCCYKPTRICYMNEQKCESTCIGK [satpdb10361]
Activity (cancer cell lines; [4]): 0 | Activity (cancer cell lines; [8]): 0

PIEVNDDCMACEACVEICPDVFEMNEEGDKAVVINPDSDLDCVEEAIDSCPAEAIVRS [1F2G;1FXD X-ray 1.70 A 1-58]
Activity (cancer cell lines; [9]): 0 | Activity (cancer cell lines; [10]): 0

GLFKVIKKVAKVIKKL [compound 4156]
Activity (cancer cell lines; [11]): 1 | Activity (cancer cell lines; [8]): 1 | Activity (cancer cell lines; [12]): 1

QEPHRHSIFTPQTNPRADLEKN [satpdb11381]
Activity (cancer cell lines; [4]): 1 | Activity (cancer cell lines; [5]): 1 | Activity (cancer cell lines; [6]): 1 | Activity (cancer cell lines; [7]): 1

MVEPLLDGLVLGLVFATLGGLFYAAYQQYKRPNELGG [4I7Z X-ray 2.80 G 1-37]
Activity (cancer cell lines; [9]): 0 | Activity (cancer cell lines; [12]): 0

CETWRTETTGATGQASSLLSGRLLEQKAASCHNSYIVLCIENSFMTSFSK [satpdb15843]
Activity (cancer cell lines; [4]): 1 | Activity (cancer cell lines; [5]): 1 | Activity (cancer cell lines; [6]): 1 | Activity (cancer cell lines; [7]): 1

CTTGPCCRQCKLKPAGTTCWKTSLTSHYCTGKSCDCPLYPG [1MPZ NMR - A 1-41]
Activity (cancer cell lines; [9]): 0 | Activity (cancer cell lines; [12]): 0

KWKLFKKIPKFLHLAKK [compound 1119]
Activity (cancer cell lines; [11]): 1 | Activity (cancer cell lines; [8]): 1 | Activity (cancer cell lines; [12]): 1

NPEDWFTPDTCAYGDSNTAWTTCTTPGQTCYTCCSSCFDVVGEQACQMSAQC [2KC6 NMR - A 1-52]
Activity (cancer cell lines; [9]): 0 | Activity (cancer cell lines; [10]): 0

GWKKWFNRAKKVGKTVGGLAVDHYLG [satpdb11446]
Activity (cancer cell lines; [13]): 0 | Activity (cancer cell lines; [8]): 0

LLKWLKK [satpdb13213]
Activity (cancer cell lines; ACPs dataset D3 (sheet "D3"), label 1 = ACP, 0 = non-ACP, ref CancerPPD/SATPdb): 0 | Activity (cancer cell lines; ACPs dataset D4 (sheet "D4"), label 1 = ACP, 0 = non-ACP, ref CancerPPD / SATPdb): 0 | Activity (cancer cell lines; [10]): 0

DLWIRETLTSPKSLTG [satpdb21617]
Activity (cancer cell lines; [4]): 1 | Activity (cancer cell lines; [5]): 1 | Activity (cancer cell lines; [6]): 1 | Activity (cancer cell lines; [7]): 1

GLFDVIKKVAAVIGGL [compound 4066]
Activity (cancer cell lines; [11]): 1 | Activity (cancer cell lines; [8]): 1 | Activity (cancer cell lines; [12]): 1

ESVFSKIGNAVGPAAYWILKGLGNMSDVNQADRINRKKH [satpdb11882]
Activity (cancer cell lines; [13]): 0 | Activity (cancer cell lines; [8]): 0

MDKVQYLTRSAIRRASTIEMPQQARQNLQNLFINFCLILICLLLICIIVMLL [4KYT X-ray 2.83 B/C 1-52]
Activity (cancer cell lines; [9]): 0 | Activity (cancer cell lines; [10]): 0

KGRGKRRRCKQRPSDCPRR [satpdb22253]
Activity (cancer cell lines; [4]): 1 | Activity (cancer cell lines; [5]): 1 | Activity (cancer cell lines; [6]): 1 | Activity (cancer cell lines; [7]): 1

FLGALFHALSKLL [compound 3266]
Activity (cancer cell lines; [4]): 1 | Activity (cancer cell lines; [5]): 1 | Activity (cancer cell lines; [6]): 1 | Activity (cancer cell lines; [7]): 1

GILLDKLKNFAKTAGKGVLQSLLNTASCKLSGQC [satpdb12360]
Activity (cancer cell lines; [13]): 0 | Activity (cancer cell lines; [8]): 0

FAKKLAKLAKKLAKLAL [compound 1787]
Activity (cancer cell lines; [11]): 1 | Activity (cancer cell lines; [5]): 1 | Activity (cancer cell lines; [6]): 1
